Source: patent US12466820B2, “Amino quinazoline derivatives as P2X3 inhibitors” (CHIESI FARMACEUTICI S.p.A., priority 2019, dated 2025)
Structures can show the parent of a compound that is named as a salt.

Target: T1, h P2X3 (Homo sapiens, UniProt P56373)
T1 sequence (P56373 1-397): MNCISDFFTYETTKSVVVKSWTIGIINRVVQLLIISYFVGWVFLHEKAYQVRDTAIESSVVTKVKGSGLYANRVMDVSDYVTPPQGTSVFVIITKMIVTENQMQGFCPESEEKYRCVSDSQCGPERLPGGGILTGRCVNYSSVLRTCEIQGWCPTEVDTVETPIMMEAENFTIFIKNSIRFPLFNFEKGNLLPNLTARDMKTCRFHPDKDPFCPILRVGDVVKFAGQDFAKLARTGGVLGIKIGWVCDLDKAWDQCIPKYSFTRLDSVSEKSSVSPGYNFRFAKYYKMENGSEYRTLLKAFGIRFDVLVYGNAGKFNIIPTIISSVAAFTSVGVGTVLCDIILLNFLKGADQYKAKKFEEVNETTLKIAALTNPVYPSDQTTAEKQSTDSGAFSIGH
Experiment: In vitro electrophysiology assay for P2X3 (automated whole-cell patch clamp, Sophion Qube)
Format: cell-based
Settings: Table 6; range of activity; inhibition of P2X3 current, agonist α,β-MeATP (800 nM)
Protocol: Pharmacological Activity of the Compounds of the Invention In Vitro Electrophysiology Assay for P2X3
Cells expressing P2X3 receptors were grown according to standard practice and maintained at 37° C. in a 5% humidified CO2 atmosphere. The cells were seeded into T175 flask 2 days prior to the day of the assay and dissociated from the flasks using TrypLE when grown to confluence of 80-90%. The dissociated cells were resuspended in serum free media at a cell density of 3×10^6 cells/ml and loaded onto the Sophion Qube automated patch-clamp system. The extracellular assay buffer contained 145 mM NaCl, 4 mM KCl, 2 mM CaCl2), 1 mM MgCl2, 10 mM HEPES, and 10 mM glucose at pH 7.4. The intracellular assay solution contained 140 mM CsF, 10 mM NaCl, 10 mM EGTA, 10 mM HEPES at pH 7.2. Agonist stock solutions were prepared in H2O and diluted in bath solution prior to use. All antagonists were prepared as 10 mM stock solutions in DMSO and diluted in bath solution prior to use. All experiments were performed under the whole-cell patch clamp configuration at room temperature with 384 individual cells being voltage clamped at −60 mV simultaneously on the Sophion Qube instrument. Two baseline responses were established with the application of α,β-MeATP (800 nM), with the subsequent agonist applications being washed out using extracellular assay buffer containing 0.5 U/ml apyrase. Following the second agonist application, antagonist was incubated in the absence of α,β-MeATP for 10 minutes. After antagonist preincubation, 800 nM α,β-MeATP and antagonist were co-administered to determine the inhibitory effect of the antagonist. One concentration of an antagonist was assessed against a single cell, with different concentrations of the antagonist applied to other cells on the 384 recording substrate. The control P2X3 current amplitude was taken from the peak current amplitude from the second agonist response prior to preincubation with antagonist. The peak P2X3 current amplitude in the presence of antagonist was used to calculate the inhibitory effect at each concentration of the antagonist according to the following equation: […]
Concentration-response curves were constructed from ten different concentrations with each concentration of antagonist tested on at least two individual cells. The concentration of the antagonist to inhibit P2X3 current by 50% (IC50) was determined by fitting the data with the following equation: […]
Where ‘a’ is minimum response, ‘b’ is maximum response, ‘c’ is IC50 and ‘d’ is Hill slope.
The results for individual compounds are provided below in Table 6 and are expressed as range of activity.
The activity of the comparative examples A and B have been tested in the in vitro Electrophysiology Assay for P2X3 as described above.

| IC50 | SMILES |
| --- | --- |
| 316 to 3160 nM | CNS(=O)(=O)c1cc(-c2ccc(F)cc2)cc2c(N[C@H](C)c3nnc(C)s3)ncnc12 [Example 21] |
| < 316 nM | C[C@@H](Nc1ncnc2c(-c3cncnc3)cc(-c3ccc(F)cc3)cc12)c1cnc(C(F)(F)F)nc1 [Example 25, (R)-6-(4-fluorophenyl)-8-(pyrimidin-5-yl)-N-(1-(2-(trifluoromethyl)pyrimidin-5-yl)ethyl)quinazolin-4-amine] |
| 316 to 3160 nM | C[C@@H](Nc1ncnc2c(C3CCOCC3)cc(-c3ccc(F)cc3)cc12)c1cnc(C(F)(F)F)nc1 [Example 26, (R)-6-(4-fluorophenyl)-8-(tetrahydro-2H-pyran-4-yl)-N-(1-(2-(trifluoromethyl)pyrimidin-5-yl)ethyl)quinazolin-4-amine] |
| < 316 nM | C[C@@H](Nc1ncnc2c(C3=CCNCC3)cc(-c3ccc(F)cc3)cc12)c1cnc(C(F)(F)F)nc1 [Example 27, (R)-6-(4-fluorophenyl)-8-(1,2,3,6-tetrahydropyridin-4-yl)-N-(1-(2-(trifluoro-methyl)pyrimidin-5-yl)ethyl)quinazolin-4-amine] |
| 316 to 3160 nM | Cc1cnc(-c2cc(OC3CCOCC3)c3ncnc(NCc4ccc(C)nn4)c3c2)nc1 [Example 31, N-[(6-methylpyridazin-3-yl)methyl]-6-(5-methylpyrimidin-2-yl)-8-tetrahydropyran-4-yloxy-quinazolin-4-amine] |
| 316 to 3160 nM | Cc1ccc([C@@H](C)Nc2ncnc3c(OC4CCOCC4)cc(-c4ccn(C)n4)cc23)nn1 [Example 32, (R)-6-(1-methyl-1H-pyrazol-3-yl)-N-(1-(6-methylpyridazin-3-yl)ethyl)-8-((tetrahydro-2H-pyran-4-yl)oxy)quinazolin-4-amine] |
| < 316 nM | Cc1ccc([C@@H](C)Nc2ncnc3c(OC4CCOCC4)cc(-c4ncc(C)s4)cc23)nn1 [Example 33] |
| 316 to 3160 nM | Cc1cnc(-c2cc(OCC3(O)CCOCC3)c3ncnc(NC(C)c4ccc(C)nn4)c3c2)nc1 (stereo not shown) [Example 34, 4-[[4-[1-(6-methylpyridazin-3-yl)ethylamino]-6-(5-methylpyrimidin-2-yl)quinazolin-8-yl]oxymethyl]tetrahydropyran-4-ol] |
| < 316 nM | COCCOc1cc(-c2ncc(C)s2)cc2c(NCc3ccc(C)nn3)ncnc12 [Example 35, 8-(2-methoxyethoxy)-N-((6-methylpyridazin-3-yl)methyl)-6-(5-methylthiazol-2-yl)quinazolin-4-amine] |
| < 316 nM | Cc1ccc(CNc2ncnc3c(OCCO)cc(-c4ncc(C)s4)cc23)nn1 [Example 36, 2-((4-(((6-methylpyridazin-3-yl)methyl)amino)-6-(5-methylthiazol-2-yl)quinazolin-8-yl)oxy)ethan-1-ol] |
| < 316 nM | Cc1ccc(CNc2ncnc3c(OCC4COC4)cc(-c4ncc(C)s4)cc23)nn1 [Example 37, N-((6-methylpyridazin-3-yl)methyl)-6-(5-methylthiazol-2-yl)-8-(oxetan-3-ylmethoxy)quinazolin-4-amine] |
| 316 to 3160 nM | Cc1ccc(CNc2ncnc3c(OC4CCOCC4)cc(-c4ncc(C)s4)cc23)nn1 [Example 38, N-[(6-methylpyridazin-3-yl)methyl]-6-(5-methylthiazol-2-yl)-8-tetrahydropyran-4-yloxy-quinazolin-4-amine] |
| < 316 nM | C[C@@H](Nc1ncnc2c(OC3CCNC4(CCC4)C3)cc(-c3ccc(F)cc3)cc12)c1cnc(C(F)(F)F)nc1 (stereo partly drawn) [Example 39, 8-(5-azaspiro[3.5]nonan-8-yloxy)-6-(4-fluorophenyl)-N-[(1R)-1-[2-(trifluoromethyl)pyrimidin-5-yl]ethyl]quinazolin-4-amine] |
| < 316 nM | C[C@@H](Nc1ncnc2c(OC3CC4CC3CN4)cc(-c3ccc(F)cc3)cc12)c1cnc(C(F)(F)F)nc1 (stereo partly drawn) [Example 41, 8-((2-azabicyclo[2.2.1]heptan-5-yl)oxy)-6-(4-fluorophenyl)-N-((R)-1-(2-(trifluoromethyl)pyrimidin-5-yl)ethyl)quinazolin-4-amine] |
| < 316 nM | Cc1cnc(-c2cc(OCC(=O)O)c3ncnc(NCc4ccc(C)nn4)c3c2)nc1 [Example 55, 2-((4-(((6-methylpyridazin-3-yl)methyl)amino)-6-(5-methylpyrimidin-2-yl)quinazolin-8-yl)oxy)acetic acid dihydrochloride] |
| 316 to 3160 nM | CN1CCC(CNc2ncnc3c(OCC(=O)O)cc(-c4ccc(F)cc4)cc23)CC1 [Example 57, 2-((6-(4-fluorophenyl)-4-(((1-methylpiperidin-4-yl)methyl)amino)quinazolin-8-yl)oxy)acetic Acid Hydrochloride] |
| 3160 to 31600 nM | Cc1ccc(CNc2ncnc3c(OC4COC4)cc(-c4ccc(F)cc4)cc23)nn1 [Example 74, 6-(4-fluorophenyl)-N-((6-methylpyridazin-3-yl)methyl)-8-(oxetan-3-yloxy)quinazolin-4-amine] |
| 316 to 3160 nM | Cc1cnc(-c2cc(OC3CCOCC3)c3ncnc(NC(C)c4nnc(C)s4)c3c2)s1 (stereo not shown) [Example 81, N-[1-(5-methyl-1,3,4-thiadiazol-2-yl)ethyl]-6-(5-methylthiazol-2-yl)-8-tetrahydropyran-4-yloxy-quinazolin-4-amine] |
| < 316 nM | Cc1nc([C@@H](C)Nc2ncnc3c(OC4CCOCC4)cc(-c4ccc(F)cn4)cc23)no1 [Example 82, 6-(5-fluoro-2-pyridyl)-N-[(1R)-1-(5-methyl-1,2,4-oxadiazol-3-yl)ethyl]-8-tetrahydropyran-4-yloxy-quinazolin-4-amine] |
| 316 to 3160 nM | Cc1ccc(CNc2ncnc3c(-c4ccnn4C)cc(-c4ccc(F)cc4)cc23)nn1 [Example 94, 6-(4-fluorophenyl)-8-(2-methylpyrazol-3-yl)-N-[(6-methylpyridazin-3-yl)methyl]quinazolin-4-amine] |
| < 316 nM | COc1cc(-n2ccc(Cl)n2)cc2c(NC(C)c3cnc(C(F)(F)F)nc3)ncnc12 (stereo not shown) [Example 95, 6-(3-Chloro-1H-pyrazol-1-yl)-8-methoxy-N-(1-(2-(trifluoromethyl)pyrimidin-5-yl)ethyl)quinazolin-4-amine] |
| 316 to 3160 nM | COc1cc(-n2ccc(Cl)n2)cc2c(NC(C)c3ccc(C)nn3)ncnc12 (stereo not shown) [Example 96, 6-(3-chloro-1H-pyrazol-1-yl)-8-methoxy-N-(1-(6-methylpyridazin-3-yl)ethyl)quinazolin-4-amine] |
| 316 to 3160 nM | COc1cc(-n2cc(F)cn2)cc2c(N[C@H](C)c3cnc(C(F)(F)F)nc3)ncnc12 [Example 97, (R)-6-(4-fluoro-1H-pyrazol-1-yl)-8-methoxy-N-(1-(2-(trifluoromethyl)pyrimidin-5-yl)ethyl)quinazolin-4-amine] |
| 316 to 3160 nM | COc1cc(-n2cc(F)cn2)cc2c(N[C@H](C)c3ccc(C)nn3)ncnc12 [Example 98, (R)-6-(4-fluoro-1H-pyrazol-1-yl)-8-methoxy-N-(1-(6-methylpyridazin-3-yl)ethyl)quinazolin-4-amine] |
| < 316 nM | COc1cc(-n2cc(Cl)cn2)cc2c(N[C@H](C)c3ccc(C)nn3)ncnc12 [Example 100, (R)-6-(4-chloro-1H-pyrazol-1-yl)-8-methoxy-N-(1-(6-methylpyridazin-3-yl)ethyl)quinazolin-4-amine] |
| 316 to 3160 nM | COc1cc(-n2ccc(F)n2)cc2c(N[C@H](C)c3ccc(C)nn3)ncnc12 [Example 101, (R)-6-(3-fluoro-1H-pyrazol-1-yl)-8-methoxy-N-(1-(6-methylpyridazin-3-yl)ethyl)quinazolin-4-amine] |
| 3160 to 31600 nM | COc1cc(-n2nccc2C)cc2c(N[C@H](C)c3ccc(C)nn3)ncnc12 [Example 102, (R)-8-methoxy-6-(5-methyl-1H-pyrazol-1-yl)-N-(1-(6-methylpyridazin-3-yl)ethyl)quinazolin-4-amine] |
| 316 to 3160 nM | COc1cc(-n2ccc(C)n2)cc2c(N[C@H](C)c3ccc(C)nn3)ncnc12 [Example 103, (R)-8-methoxy-6-(3-methyl-1H-pyrazol-1-yl)-N-(1-(6-methylpyridazin-3-yl)ethyl)quinazolin-4-amine] |
